Earlier results in patent publication US9238024B2, “Methods for improving health in canines” (Quality IP Holdings, LLC, priority 2012, dated 2016).

Key:
canines [1] = test system: canines
canines [2] = test system: canines; remark: listed apart in the source

Compound | levels of serum insulin-like growth factor-I (canines [1]; canines) | size and strength of the quadriceps muscle (canines [1]; canines during remobilization) | new bone formation (canines [2]; adult canines of both sexes, exogenous growth hormone) | bone growth factors and fracture healing (canines [2]; canines) | quantity of protein in the blood plasma (canines [2]; canines given growth hormone)
CC(C)(N)C(=O)N[C@H](COCc1ccccc1)C(=O)N1CCC2(CC1)CN(S(C)(=O)=O)c1ccccc12 [MK-0677] | elevates | increases |  |  | 
growth hormone |  |  | marked increase | enhances | increased
